Measurements: BindingDB's records for doi:10.1021/jm058046w (Martin-Luther-University Halle-Wittenberg, 2006)

Test: Cytotoxicity against mouse MDR1 transfected L5178YvMDR cell line

| Structure (SMILES) | IC50 [µM] |
| --- | --- |
| CN1C2C3C4N(C)C5C(C1[C@]5(CO)[C@H]3c1ccccc1)[C@@H](c1ccccc1)[C@@]24CO [1,7-dihydroxymethyl-3,9-dimethyl-6,12-diphenyl-3,9-diazahexacyclo[6.4.0.0 2.7.0 4.11.0. 5.10]dodecane] | 7.5 |
| CC(C)(C)OC(=O)N1C2C3C4N(C(=O)OC(C)(C)C)C5C(C1[C@]5(CO)[C@H]3c1ccccc1)[C@@H](c1ccccc1)[C@@]24CO [3,9-di(tert.)butoxycarbonyl-1,7-dihydroxymethyl-6,12-diphenyl-3,9-diazahexacyclo[6.4.0.0(2.7)0(4.11)0(5.10)]dodecane] | 3.2 |
| OC[C@]12C3C4C1N(Cc1ccccc1)C1C(C(N3Cc3ccccc3)[C@]1(CO)[C@H]4c1ccccc1)[C@H]2c1ccccc1 [3,9-dibenzyl-1,7-dihydroxymethyl-6,12-diphenyl-3,9-diazahexacyclo[6.4.0.0(2.7)0(4.11)0(5.10)]dodecane] | 13.3 |
| O=C(Oc1ccccc1)N1C2C3C4N(C(=O)Oc5ccccc5)C5C(C1[C@]5(CO)[C@H]3c1ccccc1)[C@@H](c1ccccc1)[C@@]24CO [1,7-dihydroxymethyl-6,12-diphenyl-3,9-diphenoxycarbonyl-3,9-diazahexacyclo[6.4.0.0(2.7)0(4.11)0(5.10)]dodecane] | 21 |
